Measurements taken from patent publication US20230027219A1, “Skin Care Compositions and Methods of Use Thereof” (Unigen, Inc., priority 2013, published 2023).
Where two headings read alike, the source gives them in different places.

Legend:
[1] = test system: 3T3-L1 cells; experiment: Lipid accumulation assay in adipocytes (Oil red O staining); assay type: cell-based, Mouse; settings: for inhibition at 0.005 µg/mL / inhibition at 0.01 µg/mL / inhibition at 0.05 µg/mL / inhibition at 0.1 µg/mL / inhibition at 0.5 µg/mL: Mus musculus, read-out: Inhibition (%) of lipid accumulation; for effect on lipid accumulation, in words: over the doses tested, 3T3-L1, Oil red O
Description: Mouse embryo fibroblast 3T3-L1 cells (purchased from American Type Culture Collection) were cultured in Dulbecco's modified Eagle's medium (DMEM) (GIBCO) containing 10% bovine calf serum until confluent. Two days post-confluence (D0), the cells were stimulated to differentiate into an adipocyte-like phenotype by adding DMEM containing 10% fetal bovine serum (FBS), 5 μg/ml insulin, 0.5 mM 3-isobutyl-1-methylxanthine (IBMX) and 1 μM dexamethasone for two days (D2). Cells were then maintained in 10% FBS/DMEM medium with 5 μg/ml insulin for another two days (D4), followed by culturing with 10% FBS/DMEM medium for four days (D8). Test samples at various concentrations were added to the cells from Day 0 to Day 8 of adipogenesis, during which the medium was exchanged every 2 days with fresh medium containing the test sample. On Day 8, lipid droplets in cells were stained with Oil red O (ORO) and signal measured at 510 nm.
Briefly, three concentrations of Annona AS-EE3 (100% EtOH) and AS-EE4 (70% EtOH) extracts (0.1, 0.5 and 1 μg/ml) and positive control TNF-α(10 ng/mL) were used to treat 3T3-L1 cells during the differentiation period (from Day 0 to Day 8 of adipogenesis). Cell culture medium containing extracts was changed every 2 days and ORO staining was used to detect lipid droplet accumulation in cells.
Three concentrations of the Annona hexane extracts (0.05, 0.1 and 0.5 μg/ml) were used to treat 3T3-L1 cells during the differentiation period (from Day 0 to Day 8 of adipogenesis), then stained for lipid accumulation on Day 8.
Similar to the previous extracts, each EtOAc extract was tested at three doses of 0.05 μg/ml, 0.1 μg/ml and 0.5 μg/ml.
Similar to the previous extracts, each of the CO2 extracts were tested at the following six doses of 0.0625 μg/ml, 0.125 μg/ml, 0.25 μg/ml, 0.35 μg/ml, 0.5 μg/ml, and 1 μg/ml.

[2] = test system: human subcutaneous preadipocytes; experiment: Differentiation assay in human subcutaneous adipocytes (glycerol liberated from triglyceride); assay type: cell-based
Description: The inhibition of lipid accumulation and differentiation assays examined the ability of compounds to inhibit the differentiation of human subcutaneous preadipocytes into adipocytes. Cells were grown to confluency such that all cells were synchronized and then differentiated. Cryopreserved preadipocytes were passaged with preadipocyte medium (PM-1). Cells were fed every other day with PM-1 until confluent. To induce differentiation, PM-1 medium was replaced with differentiation medium (DM-2) including insulin, dexamethasone, isobutyl methylxanthine, PPAR-γ agonist, TNF-α and test compounds at day two. After 7 days, the medium was changed to Adipocyte medium without the test compounds. On day 16 of the assay, cytotoxicity and lipid accumulation were measured. Medium was removed, leaving 50 μl in each well. 10 μl Cell Titer Blue reagent was added to each well. Cells were incubated at 37° C. for 2 hours. […] Fluorescence was measured at excitation 560 nm/emission 590 nm. […] The optical density was read at 540 nm after 15 minutes. […]
The lipid accumulation assay of Example 28 was carried out with Annona squamosa extracts. […] After 2 weeks of treatment, cells were washed with PBS, lysed and triglyceride measured by total TG assay kit (Zen-bio). The reagents contain microbial lipase and the amount of glycerol liberated from triglyceride was measured. […]

[3] = test system: 3T3-L1 pre-adipocytes; experiment: Intracellular triglyceride (TG) content assay; assay type: cell-based, Mouse; settings: 10 ng/ml; 3T3-L1, 8 days
Description: […] The cells were washed with PBS, scraped with homogenizing solutions. The residual cell lysate was centrifuged at 3000 g for 5 min to remove fat layers. The supernatants were assayed. The triglyceride levels were measured by using a commercial kit according to the manufacturer's instructions (#10010303, Cayman Chem., USA). As adipocytes differentiate, their intracellular levels of triglyceride increase continuously.

Row | Compound | inhibition at 0.005 µg/mL ([1]; 3T3-L1, 0 h) | inhibition at 0.01 µg/mL ([1]; 3T3-L1, 0 h) | inhibition at 0.05 µg/mL ([1]; 3T3-L1, 0 h) | inhibition at 0.1 µg/mL ([1]; 3T3-L1, 0 h) | inhibition at 0.5 µg/mL ([1]; 3T3-L1, 0 h) | effect on lipid accumulation, in words [1] | Concentration of Glycerol ([2]; 0.01 μg/ml, control 208.28) | Concentration of Glycerol ([2]; TNF-α 0.01 μg/mL, control 208.28 (Table 32)) | Inhibition (%) of intracellular triglyceride level [3] | inhibition at 0.005 µg/mL ([1]; 0 h, 0.005 μg/ml, 3T3-L1, treated Day 0-8, Oil red O) | inhibition at 0.01 µg/mL ([1]; 0 h, 0.01 μg/ml, 3T3-L1, treated Day 0-8, Oil red O) | inhibition at 0.05 µg/mL ([1]; 0 h, 0.05 μg/ml, 3T3-L1, treated Day 0-8, Oil red O) | inhibition at 0.1 µg/mL ([1]; 0 h, 0.1 μg/ml, 3T3-L1, treated Day 0-8, Oil red O) | inhibition at 0.5 µg/mL ([1]; 0 h, 0.5 μg/ml, 3T3-L1, treated Day 0-8, Oil red O)
1 | CCCCCCC(O)CCCC(O)C1CCC(C2CCC(C(O)CCCCCCCCCCCCC3=CC(C)OC3=O)O2)O1 (stereo not drawn) [SA1, Squamocin] | 10.7 ± 10.9% | 37.8 ± 4.4% | 72.3 ± 3.1% | 71.6 ± 1.9% | 66.7 ± 4.7% | high efficacy in a dose dependent manner | – | – | – | – | – | – | – | –
2 | TNF-α [reference compound] | – | – | – | – | – | – | 4.40 µM | 4.40 | 55.1% | – | – | – | – | –
3 | C=C1C[C@@]23CC[C@H]4[C@@](C)(CCC[C@@]4(C)C(=O)O)[C@@H]2CC[C@@H]1C3 [SA2, kaurenoic acid] | – | – | – | – | – | weaker effect | – | – | – | 2 ± 21.9% | 0% | 9.8 ± 13.6% | 12.6 ± 11.7% | 7.8 ± 17.1%
